The values below come from patent publication US20090137549A1, “Novel compounds useful for the treatment of degenerative & inflamatory diseases” (priority 2006, published 2009).

For orientation: pIC50 means the IC50 on a negative log10 scale, so that one unit is a factor of ten. A low value points to a large IC50.

pIC50: −log10 of the molar value.

This assay has as its target PDE1A (Homo sapiens, UniProt P54750). The experiment in a line: PDE1A dose response, Cyclic Nucleotide Phosphodiesterase Assay Kit from Biomol (colorimetric). The conditions noted are these: purified PDE1A enzyme, 100 μM cAMP. Format: biochemical. An excerpt: For the dose response and further screening, we used the Cyclic Nucleotide
Phosphodiesterase Assay Kit from Biomol, a colorimetric, non-radioactive assay. The basis for the assay is the cleavage of cAMP by PDE1A. The 5′AMP is further cleaved into the nucleoside and phosphate by the enzyme 5′-nucleotidase (catnr KI-307). The phosphate released due to enzymatic cleavage is quantified using BIOMOL GREEN™ reagent (catnr AK-111) in a modified Malachite Green assay^1,2. A PDE1A inhibitor will result in a decrease of the signal.
For the enzymatic reaction a mix of 25 μL with purified PDE1A enzyme, 100 μM cAMP, 5′Nucleotidase and the compound is made in a clear 384-plate. The reaction buffer is Tris 20 mM pH 7.4, 4 μg/mL calmodulin, 3 mM MgCl2, 1.5 mM CaCl2, 0.2 mg/mL BSA and 0.001% Brij-35. After an incubation of 45 minutes at 37° C., the reaction is stopped by the addition of 50 μL BIOMOL GREEN™ reagent. After 30 minutes incubation at room temperature, the readout is performed on the Envision (absorption at 615 nm).
All compounds are tested in duplicate starting from […] followed by a 1/3 serial dilution, 8 points (20 μM-6.67 μM-2.22 μM-740 nM-247 nM-82 nM-27 nM-9 nM) in a final concentration of 1% DMSO. As the positive dose response control compound Vardenafil is used. For the calculation of z′ and PIN values 10 μM Vardenafil is used as positive control (100% inhibition) and 1% DMSO as negative control (0% inhibition).
The following compounds have been or can be prepared according to the synthetic methods described above. For the purpose of Table 7 below, PDE1A activity of each compound, which can be determined using the assay methods described herein, is expressed as follows: […]
Turning to `Cc1nn(C2CCCCC2)c2nc(C3CN(C(=O)N[C@@H](C)c4ccccc4)C3)[nH]c(=O)c12` [Example 42, (S)-3-(1-cyclohexyl-3-methyl-4-oxo-4,5-dihydro-1H-pyrazolo[3,4-d]pyrimidin-6-yl)-N-(1-phenylethyl)azetidine-1-carboxamide], the pIC50 was 7.00 to 9.00.

`O=C(NCCC(F)(F)F)N1CC(c2nc3c(cnn3C3CCCCC3)c(=O)[nH]2)C1` [Example 43, 3-(1-cyclohexyl-4-oxo-4,5-dihydro-1H-pyrazolo[3,4-d]pyrimidin-6-yl)-N-(3,3,3-trifluoropropyl)azetidine-1-carboxamide]: the pIC50 was 7.00 to 9.00.

With `COc1ccc(S(=O)(=O)N2CCCC(c3nc4c(cnn4C4CCCCC4)c(=O)[nH]3)C2)cc1OC` (centres unmarked) [Example 44, 1-cyclohexyl-6-(1-(3,4-dimethoxyphenylsulfonyl)piperidin-3-yl)-1H-pyrazolo[3,4-d]pyrimidin-4(5H)-one], the pIC50 is 7.00 to 9.00.

The compound `CN(C)c1cccc(C(=O)N2CCCC(c3nc4c(cnn4C4CCCCC4)c(=O)[nH]3)C2)c1` (centres unmarked) [Example 45, 1-cyclohexyl-6-(1-(3-(dimethylamino)benzoyl)piperidin-3-yl)-1H-pyrazolo[3,4-d]pyrimidin-4(5H)-one] showed a pIC50 of 6.30 to 7.00.

For the compound `COc1ccc(S(=O)(=O)N2CCCC(c3nc4c(cnn4-c4ccccc4)c(=O)[nH]3)C2)cc1` (centres unmarked) [Example 46, 6-(1-(4-methoxyphenylsulfonyl)piperidin-3-yl)-1-phenyl-1H-pyrazolo[3,4-d]pyrimidin-4(5H)-one], the pIC50 was 6.30 to 7.00.

For the compound `O=C(NC1CCOCC1)N1CC(c2nc3c(cnn3C3CCCCC3)c(=O)[nH]2)C1` [Example 47, 3-(1-cyclohexyl-4-oxo-4,5-dihydro-1H-pyrazolo[3,4-d]pyrimidin-6-yl)-N-(tetrahydro-2H-pyran-4-yl)azetidine-1-carboxamide], the pIC50 was 6.30 to 7.00.

For the compound `COc1ccccc1C(=O)N1CCCC(c2nc3c(cnn3C3CCCCC3)c(=O)[nH]2)C1` (centres unmarked) [Example 48, 1-cyclohexyl-6-(1-(2-methoxybenzoyl)piperidin-3-yl)-1H-pyrazolo[3,4-d]pyrimidin-4(5H)-one], the pIC50 was 6.30 to 7.00.

For the compound `O=C(c1cccc2c1OCO2)N1CCCC(c2nc3c(cnn3C3CCCCC3)c(=O)[nH]2)C1` (centres unmarked) [Example 49, 6-(1-(benzo[d][1,3]dioxole-4-carbonyl)piperidin-3-yl)-1-cyclohexyl-1H-pyrazolo[3,4-d]pyrimidin-4(5H)-one], the pIC50 was 6.30 to 7.00.

In turn, `Cc1nn(-c2ccc(F)cc2)c2nc(C3CN(C(=O)NC4CCCCC4)C3)[nH]c(=O)c12` [Example 50, N-cyclohexyl-3-(1-(4-fluorophenyl)-3-methyl-4-oxo-4,5-dihydro-1H-pyrazolo[3,4-d]pyrimidin-6-yl)azetidine-1-carboxamide] showed a pIC50 of 6.30 to 7.00.

As for `COc1ccc(S(=O)(=O)N2CCCC(c3nc4c(cnn4C4CCCCC4)c(=O)[nH]3)C2)cc1` (centres unmarked) [Example 51, 1-cyclohexyl-6-(1-(4-methoxyphenylsulfonyl)piperidin-3-yl)-1H-pyrazolo[3,4-d]pyrimidin-4(5H)-one], the pIC50 was 6.30 to 7.00.

For `COc1cccc(C(=O)N2CC(c3nc4c(c(C)nn4C4CCCCC4)c(=O)[nH]3)C2)c1` [Example 52, 1-cyclohexyl-6-(1-(3-methoxybenzoyl)azetidin-3-yl)-3-methyl-1H-pyrazolo[3,4-d]pyrimidin-4(5H)-one], the pIC50 is 6.30 to 7.00.

For `COc1cccc(C(=O)N2CCCC(c3nc4c(cnn4C4CCCCC4)c(=O)[nH]3)C2)c1` (centres unmarked) [Example 53, 1-cyclohexyl-6-(1-(3-methoxybenzoyl)piperidin-3-yl)-1H-pyrazolo[3,4-d]pyrimidin-4(5H)-one], the negative logarithm of the IC50 (pIC50) is 6.30 to 7.00.

Turning to `O=C(c1ccccc1OC(F)(F)F)N1CCCC(c2nc3c(cnn3C3CCCCC3)c(=O)[nH]2)C1` (centres unmarked) [Example 54, 1-cyclohexyl-6-(1-(2-(trifluoromethoxy)benzoyl)piperidin-3-yl)-1H-pyrazolo[3,4-d]pyrimidin-4(5H)-one], the pIC50 was 6.30 to 7.00.

Consider `CCCCS(=O)(=O)Nc1cccc(C(=O)N2CCCC(c3nc4c(c(C)nn4C4CCCCC4)c(=O)[nH]3)C2)c1` (centres unmarked) [Example 55, N-(3-(3-(1-cyclohexyl-3-methyl-4-oxo-4,5-dihydro-1H-pyrazolo[3,4-d]pyrimidin-6-yl)piperidine-1-carbonyl)phenyl)butane-1-sulfonamide], for which the pIC50 is 6.30 to 7.00.

For the compound `COc1ccc(S(=O)(=O)N2CCCC(c3nc4c(c(C)nn4C4CCCCC4)c(=O)[nH]3)C2)cc1` (centres unmarked) [Example 56, 1-cyclohexyl-6-(1-(4-methoxyphenylsulfonyl)piperidin-3-yl)-3-methyl-1H-pyrazolo[3,4-d]pyrimidin-4(5H)-one], the pIC50 is 6.30 to 7.00.

`COc1ccccc1C(=O)N1CCCC(c2nc3c(c(C)nn3C3CCCCC3)c(=O)[nH]2)C1` (centres unmarked) [Example 57, 1-cyclohexyl-6-(1-(2-methoxybenzoyl)piperidin-3-yl)-3-methyl-1H-pyrazolo[3,4-d]pyrimidin-4(5H)-one] gave a pIC50 of 6.30 to 7.00.

On to `Cc1nn(C2CCCCC2)c2nc(C3CCCN(C(=O)c4cccc5c4OC(F)(F)O5)C3)[nH]c(=O)c12` (centres unmarked) [Example 58, 1-cyclohexyl-6-(1-(2,2-difluorobenzo[d][1,3]dioxole-4-carbonyl)piperidin-3-yl)-3-methyl-1H-pyrazolo[3,4-d]pyrimidin-4(5H)-one], for which the pIC50 was 6.30 to 7.00.

Compound `Cc1nn(C2CCCCC2)c2nc(C3CCCN(C(=O)c4ccc(N(C)C)cc4)C3)[nH]c(=O)c12` (centres unmarked) [Example 59, 1-cyclohexyl-6-(1-(4-(dimethylamino)benzoyl)piperidin-3-yl)-3-methyl-1H-pyrazolo[3,4-d]pyrimidin-4(5H)-one] showed a pIC50 of 6.30 to 7.00.

In turn, `CN(C)c1ccc(C(=O)N2CCCC(c3nc4c(cnn4C4CCCCC4)c(=O)[nH]3)C2)cc1` (centres unmarked) [Example 60, 1-cyclohexyl-6-(1-(4-(dimethylamino)benzoyl)piperidin-3-yl)-1H-pyrazolo[3,4-d]pyrimidin-4(5H)-one] gave a pIC50 of 6.30 to 7.00.

For the compound `O=C(NCCN1CCOCC1)N1CC(c2nc3c(cnn3C3CCCCC3)c(=O)[nH]2)C1` [Example 61, 3-(1-cyclohexyl-4-oxo-4,5-dihydro-1H-pyrazolo[3,4-d]pyrimidin-6-yl)-N-(2-morpholinoethyl)azetidine-1-carboxamide], the pIC50 was 6.30 to 7.00.

As to `O=C(NCCc1c[nH]cn1)N1CC(c2nc3c(cnn3C3CCCCC3)c(=O)[nH]2)C1` [Example 62, N-(2-(1H-imidazol-4-yl)ethyl)-3-(1-cyclohexyl-4-oxo-4,5-dihydro-1H-pyrazolo[3,4-d]pyrimidin-6-yl)azetidine-1-carboxamide], the pIC50 was 6.30 to 7.00.

As to `COc1ccc(OC)c(S(=O)(=O)N2CCCC(c3nc4c(cnn4C4CCCCC4)c(=O)[nH]3)C2)c1` (centres unmarked) [Example 63, 1-cyclohexyl-6-(1-(2,5-dimethoxyphenylsulfonyl)piperidin-3-yl)-1H-pyrazolo[3,4-d]pyrimidin-4(5H)-one], the negative logarithm of the IC50 (pIC50) is 6.30 to 7.00.

`Cc1nn(C2CCCCC2)c2nc(C3CCCN(C(=O)c4cccc(NS(C)(=O)=O)c4)C3)[nH]c(=O)c12` (centres unmarked) [Example 64, N-(3-(3-(1-cyclohexyl-3-methyl-4-oxo-4,5-dihydro-1H-pyrazolo[3,4-d]pyrimidin-6-yl)piperidine-1-carbonyl)phenyl)methanesulfonamide]: the pIC50 is 6.30 to 7.00.

`COc1ccccc1C(=O)N1CCCC(c2nc3c(cnn3-c3ccccc3)c(=O)[nH]2)C1` (centres unmarked) [Example 65, 6-(1-(2-methoxybenzoyl)piperidin-3-yl)-1-phenyl-1H-pyrazolo[3,4-d]pyrimidin-4(5H)-one] had a pIC50 of 6.30 to 7.00.

Consider `COC(=O)c1ccc(C(=O)N2CCCC(c3nc4c(c(C)nn4C4CCCCC4)c(=O)[nH]3)C2)cc1` (centres unmarked) [Example 66, methyl 4-(3-(1-cyclohexyl-3-methyl-4-oxo-4,5-dihydro-1H-pyrazolo[3,4-d]pyrimidin-6-yl)piperidine-1-carbonyl)benzoate], for which the pIC50 is 6.30 to 7.00.

Regarding `CN(C)c1ccc(C(=O)N2CCCC(c3nc4c(cnn4-c4ccccc4)c(=O)[nH]3)C2)cc1` (centres unmarked) [Example 67, 6-(1-(4-(dimethylamino)benzoyl)piperidin-3-yl)-1-phenyl-1H-pyrazolo[3,4-d]pyrimidin-4(5H)-one], the pIC50 was 6.30 to 7.00.

In turn, `COc1cccc(C(=O)N2CCCC(c3nc4c(cnn4-c4ccccc4)c(=O)[nH]3)C2)c1` (centres unmarked) [Example 68, 6-(1-(3-methoxybenzoyl)piperidin-3-yl)-1-phenyl-1H-pyrazolo[3,4-d]pyrimidin-4(5H)-one] had a negative-log IC50 (pIC50) of 6.30 to 7.00.

Take `O=C(NC1CC1)N1CC(c2nc3c(cnn3C3CCCCC3)c(=O)[nH]2)C1` [Example 69, 3-(1-cyclohexyl-4-oxo-4,5-dihydro-1H-pyrazolo[3,4-d]pyrimidin-6-yl)-N-cyclopropylazetidine-1-carboxamide]: the pIC50 is 6.30 to 7.00.

On to `COc1ccc(S(=O)(=O)N2CCCC(c3nc4c(c(C)nn4C4CCC4)c(=O)[nH]3)C2)cc1` (centres unmarked) [Example 70, 1-cyclobutyl-6-(1-(4-methoxyphenylsulfonyl)piperidin-3-yl)-3-methyl-1H-pyrazolo[3,4-d]pyrimidin-4(5H)-one], for which the pIC50 is 6.30 to 7.00.
